Assays:
Experiment in all cases: Test D pre-/postemergence controlled growth environment herbicide test
Type in all cases: in vivo
Settings in all cases: scale 0 to 100
[1] = test system: canarygrass (Phalaris minor)
Procedure, shortened: (§1)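 Herbicidal effect, both preemergence (silt loam soil) and postemergence (1- to 4-leaf plants, peat-based medium), was scored 14–21 d post-treatment on a 0–100 control scale relative to untreated plants; applications used a non-phytotoxic solvent formulation with surfactant.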

[2] = test system: chickweed (common chickweed, Stellaria media)
Procedure, shortened: as §1

[3] = test system: speedwell (bird's-eye speedwell, Veronica persica)
Procedure, shortened: as §1

Compound | Plant response rating ([1]; Postemergence, 31 g ai/ha) | Plant response rating ([1]; Postemergence, 62 g ai/ha) | Plant response rating ([1]; Postemergence, 125 g ai/ha) | Plant response rating ([1]; Postemergence, 250 g ai/ha) | Plant response rating ([1]; Postemergence, 500 g ai/ha) | Plant response rating ([1]; Preemergence, 31 g ai/ha) | Plant response rating ([1]; Preemergence, 62 g ai/ha) | Plant response rating ([1]; Preemergence, 125 g ai/ha) | Plant response rating ([1]; Preemergence, 250 g ai/ha) | Plant response rating ([1]; Preemergence, 500 g ai/ha) | Plant response rating ([2]; Postemergence, 31 g ai/ha) | Plant response rating ([2]; Postemergence, 62 g ai/ha) | Plant response rating ([2]; Postemergence, 125 g ai/ha) | Plant response rating ([2]; Postemergence, 250 g ai/ha) | Plant response rating ([2]; Postemergence, 500 g ai/ha) | Plant response rating ([2]; Preemergence, 31 g ai/ha) | Plant response rating ([2]; Preemergence, 62 g ai/ha) | Plant response rating ([2]; Preemergence, 125 g ai/ha) | Plant response rating ([2]; Preemergence, 250 g ai/ha) | Plant response rating ([2]; Preemergence, 500 g ai/ha) | also measured
Cc1cc(=O)n(-c2ccc(F)cc2)nc1Cc1ccnc(C(F)(F)F)c1 [Compound 1, 2-(4-fluorophenyl)-5-methyl-6-[[2-(trifluoromethyl)-4-pyridinyl]methyl]-3(2H)-pyridazinone] | 5 | 10 | 15 | 20 | 20 | 0 | 0 | 5 | 15 | 30 | 30 | 30 | 50 | 50 | 60 | 100 | 100 | 100 | 100 | 100 | Plant response rating ([3]; Postemergence, 31 g ai/ha): 30; Plant response rating ([3]; Postemergence, 62 g ai/ha): 80; Plant response rating ([3]; Postemergence, 125 g ai/ha): 100; Plant response rating ([3]; Postemergence, 250 g ai/ha): 40; Plant response rating ([3]; Postemergence, 500 g ai/ha): 100; Plant response rating ([3]; Preemergence, 31 g ai/ha): 100; Plant response rating ([3]; Preemergence, 62 g ai/ha): 100; Plant response rating ([3]; Preemergence, 125 g ai/ha): 100; Plant response rating ([3]; Preemergence, 250 g ai/ha): 100; Plant response rating ([3]; Preemergence, 500 g ai/ha): 100
Cc1cc(=O)n(-c2ccc(C(F)(F)F)cc2)nc1Cc1ccnc(C(F)(F)F)c1 [Compound 2, 5-methyl-2-[4-(trifluoromethyl)phenyl]-6-[[2-(trifluoromethyl)-4-pyridinyl]methyl]-3(2H)-pyridazinone] | 20 | 20 | 20 | 20 | 25 | 0 | 25 | 40 | 40 | 85 | 30 | 40 | 70 | 75 | 100 | 100 | 100 | 100 | 100 | 100 | Plant response rating ([3]; Postemergence, 31 g ai/ha): 100; Plant response rating ([3]; Postemergence, 62 g ai/ha): 100; Plant response rating ([3]; Postemergence, 125 g ai/ha): 100; Plant response rating ([3]; Postemergence, 250 g ai/ha): 100; Plant response rating ([3]; Postemergence, 500 g ai/ha): 100; Plant response rating ([3]; Preemergence, 31 g ai/ha): 100; Plant response rating ([3]; Preemergence, 62 g ai/ha): 100; Plant response rating ([3]; Preemergence, 125 g ai/ha): 100; Plant response rating ([3]; Preemergence, 250 g ai/ha): 100; Plant response rating ([3]; Preemergence, 500 g ai/ha): 100

— US10202361B2, “Pyridazinones as herbicides” (E I DU PONT DE NEMOURS AND COMPANY, priority 2014, dated 2019)
